# Biological target: T1, PDE2 (Bos taurus, UniProt P14099)
# T1 sequence (P14099 1-921): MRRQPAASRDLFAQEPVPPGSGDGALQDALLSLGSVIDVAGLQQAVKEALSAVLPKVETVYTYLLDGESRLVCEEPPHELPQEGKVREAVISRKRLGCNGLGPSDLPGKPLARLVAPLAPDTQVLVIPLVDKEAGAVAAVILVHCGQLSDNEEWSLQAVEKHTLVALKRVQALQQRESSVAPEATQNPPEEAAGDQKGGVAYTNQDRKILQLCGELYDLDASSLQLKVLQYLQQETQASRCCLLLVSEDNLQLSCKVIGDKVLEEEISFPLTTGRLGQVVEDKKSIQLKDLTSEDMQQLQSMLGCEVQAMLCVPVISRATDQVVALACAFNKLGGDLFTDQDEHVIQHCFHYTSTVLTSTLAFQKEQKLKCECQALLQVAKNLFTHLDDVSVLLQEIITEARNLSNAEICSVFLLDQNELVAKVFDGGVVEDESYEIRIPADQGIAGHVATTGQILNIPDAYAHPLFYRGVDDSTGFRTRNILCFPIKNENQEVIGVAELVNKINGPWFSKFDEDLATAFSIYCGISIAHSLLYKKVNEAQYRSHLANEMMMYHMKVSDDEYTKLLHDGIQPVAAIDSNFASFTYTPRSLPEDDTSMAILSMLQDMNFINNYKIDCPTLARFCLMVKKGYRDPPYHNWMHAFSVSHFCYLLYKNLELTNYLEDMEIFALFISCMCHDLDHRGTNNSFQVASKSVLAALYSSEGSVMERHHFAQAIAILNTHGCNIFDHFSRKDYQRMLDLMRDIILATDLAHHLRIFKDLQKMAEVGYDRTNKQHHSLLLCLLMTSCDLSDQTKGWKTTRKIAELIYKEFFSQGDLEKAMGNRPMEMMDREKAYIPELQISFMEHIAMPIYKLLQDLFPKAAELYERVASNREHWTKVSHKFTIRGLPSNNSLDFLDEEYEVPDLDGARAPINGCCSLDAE
# Test: Radioenzymatic phosphodiesterase assay: PDE2 inhibition
# Format: biochemical, bovine
# Conditions: Table 1; 10 μM test compound; read-out: PDE2 percentage of inhibition at 10 μM
# Experimental: Nucleoside radioactivity was determined by liquid scintillation.
row,SMILES,inhibition at 10 µM
1,"COc1ccccc1-c1cc2c(cc1Oc1ccccc1)N(C)C(=O)CN=C2c1cccc(C(N)=O)c1 [Example 74, 3-[7-(2-Methoxy-phenyl)-1-methyl-2-oxo-8-phenoxy-2,3-dihydro-1H-benzo[e][1,4]diazepin-5-yl]-benzamide]",98%
2,"COc1ccc(C2=NCC(=O)Nc3cc(OC)c(-c4ccccc4)cc32)cc1 [Example 76, 5-(4-Methoxy-phenyl)-8-methoxy-7-phenyl-1,3-dihydro-benzo[e][1,4]diazepin-2-one]",91%
3,"COc1cccc(C2=NCC(=O)N(C)c3ccc(-c4ccccc4)cc32)c1 [Example 79, 5-(3-Methoxy-phenyl)-1-methyl-7-phenyl-1,3-dihydro-benzo[e][1,4]diazepin-2-one]",84%
4,"COc1ccc(Cl)cc1-c1ccc2c(c1)C(c1cccc(C#N)c1)=NCC(=O)N2C [Example 81, 3-[7-(5-Chloro,2-methoxy-phenyl)-1-methyl-2-oxo-2,3-dihydro-1H-benzo[e][1,4]diazepin-5-yl]-benzonitrile]",22%
5,"COc1cccc(Cl)c1-c1ccc2c(c1)C(c1cccc(C#N)c1)=NCC(=O)N2C [Example 82, 3-[7-(2-Chloro,6-methoxy-phenyl)-1-methyl-2-oxo-2,3-dihydro-1H-benzo[e][1,4]diazepin-5-yl]-benzonitrile]",92%
6,"CN1C(=O)CN=C(c2cccc(C(N)=O)c2)c2cc(-c3ccccc3)c(OC(F)(F)F)cc21 [Example 87, 3-(1-Methyl-2-oxo-7-phenyl-8-trifluoromethoxy-2,3-dihydro-1H-benzo[e][1,4]diazepin-5-yl)-benzamide]",93%

# Same assay, conditions: read-out: PDE2 percentage of inhibition at 10 μM
row,SMILES,inhibition at 10 µM
1,"COc1ccccc1-c1cc2c(cc1Oc1ccccc1)N(C)C(=O)CN=C2c1cccc(C#N)c1 [Example 70, 3-[7-(2-Methoxy-phenyl)-1-methyl-2-oxo-8-phenoxy-2,3-dihydro-1H-benzo[e][1,4]diazepin-5-yl]-benzonitrile]",95%
2,"CN1C(=O)CN=C(c2cccc(C#N)c2)c2cc(-c3ccccc3Cl)c(Oc3ccccc3)cc21 [Example 71, 3-[7-(2-Chloro-phenyl)-1-methyl-2-oxo-8-phenoxy-2,3-dihydro-1H-benzo[e][1,4]diazepin-5-yl]-benzonitrile]",82%
3,"CN1C(=O)CN=C(c2cccc(C(N)=O)c2)c2cc(-c3ccccc3)c(Oc3ccccc3)cc21 [Example 72, 3-(1-Methyl-2-oxo-8-phenoxy-7-phenyl-2,3-dihydro-1H-benzo[e][1,4]diazepin-5-yl)-benzamide]",28%
4,"CN1C(=O)CN=C(c2cccc(C(N)=O)c2)c2cc(-c3ccccc3Cl)c(Oc3ccccc3)cc21 [Example 73, 3-[7-(2-Chloro-phenyl)-1-methyl-2-oxo-8-phenoxy-2,3-dihydro-1H-benzo[e][1,4]diazepin-5-yl]-benzamide]",96%
5,"COc1cccc(OC)c1-c1ccc2c(c1)C(c1ccc(C)c([N+](=O)[O-])c1)=NCC(=O)N2C [Example 77, 7-(2,6-Dimethoxy-phenyl)-1-methyl-5-(4-methyl-3-nitro-phenyl)-1,3-dihydro-benzo[e][1,4]diazepin-2-one]",99%
6,"COc1cc2c(cc1-c1ccccc1OC(C)C)C(c1cccc(C(N)=O)c1)=NCC(=O)N2C [Example 78, 3-[7-(2-Isopropoxy-phenyl)-8-methoxy-1-methyl-2-oxo-2,3-dihydro-1H-benzo[e][1,4]diazepin-5-yl]-benzamide]",97%
7,"N#Cc1cccc(C2=NCC(=O)Nc3cc(OC(F)(F)F)c(-c4ccccc4)cc32)c1 [Example 85, 3-(2-Oxo-7-phenyl-8-trifluoromethoxy-2,3-dihydro-1H-benzo[e][1,4]diazepin-5-yl)-benzonitrile]",70%
8,"CN1C(=O)CN=C(c2cccc(C#N)c2)c2cc(-c3ccccc3)c(OC(F)(F)F)cc21 [Example 86, 3-(1-Methyl-2-oxo-7-phenyl-8-trifluoromethoxy-2,3-dihydro-1H-benzo[e][1,4]diazepin-5-yl)-benzonitrile]",85%
